Molecules are shown by their SMILES. Like-named read-outs stand apart in the source and are kept apart here.

Format in all cases: biochemical
The target in assay [1] is T1, Arthrobacter sp. S3* Bgal42 (GH42 β-D-galactosidase) (Arthrobacter sp. ON14, UniProt D9IU57, P2A/G388S/G665D).
T1 construct: gene galB
Briefly: inhibition of ONPG hydrolysis, absorbance […] nm. To be noted: 5 mM monosaccharide, 1-5 mM ONPG, 20 mM potassium phosphate, pH 7.0, 30 °C, read-out: apparent Ki.

In assay [2] the target is T2, Arthrobacter sp. S3* Bgal2 (GH2 β-D-galactosidase) (Arthrobacter sp. ON14, UniProt D9IU58).
T2 construct: gene galA
In words: o-nitrophenol release, absorbance […] nm, Lineweaver-Burk. To be noted: 20 mM potassium phosphate, 50 mM KCl, pH 7.5, 20 °C; read-out: Km (mM) / ONPG. From the text: S3* Bgal2 (GH2 β-D-galactosidase)

The target in assay [3] is T2, Arthrobacter sp. S3* Bgal2 (GH2 β-D-galactosidase). Briefly: glucose release by Glucose (GO) Assay Kit, Lineweaver-Burk. To be noted: read-out: Km (mM) / Lactose; 20 mM potassium phosphate, 50 mM KCl, pH 7.5, 20 °C. An excerpt:
glucose release by Glucose (GO) Assay Kit, Lineweaver-Burk on Arthrobacter sp. S3* Bgal2 (GH2 β-D-galactosidase)

T2 sequence (D9IU58 entry or part of it): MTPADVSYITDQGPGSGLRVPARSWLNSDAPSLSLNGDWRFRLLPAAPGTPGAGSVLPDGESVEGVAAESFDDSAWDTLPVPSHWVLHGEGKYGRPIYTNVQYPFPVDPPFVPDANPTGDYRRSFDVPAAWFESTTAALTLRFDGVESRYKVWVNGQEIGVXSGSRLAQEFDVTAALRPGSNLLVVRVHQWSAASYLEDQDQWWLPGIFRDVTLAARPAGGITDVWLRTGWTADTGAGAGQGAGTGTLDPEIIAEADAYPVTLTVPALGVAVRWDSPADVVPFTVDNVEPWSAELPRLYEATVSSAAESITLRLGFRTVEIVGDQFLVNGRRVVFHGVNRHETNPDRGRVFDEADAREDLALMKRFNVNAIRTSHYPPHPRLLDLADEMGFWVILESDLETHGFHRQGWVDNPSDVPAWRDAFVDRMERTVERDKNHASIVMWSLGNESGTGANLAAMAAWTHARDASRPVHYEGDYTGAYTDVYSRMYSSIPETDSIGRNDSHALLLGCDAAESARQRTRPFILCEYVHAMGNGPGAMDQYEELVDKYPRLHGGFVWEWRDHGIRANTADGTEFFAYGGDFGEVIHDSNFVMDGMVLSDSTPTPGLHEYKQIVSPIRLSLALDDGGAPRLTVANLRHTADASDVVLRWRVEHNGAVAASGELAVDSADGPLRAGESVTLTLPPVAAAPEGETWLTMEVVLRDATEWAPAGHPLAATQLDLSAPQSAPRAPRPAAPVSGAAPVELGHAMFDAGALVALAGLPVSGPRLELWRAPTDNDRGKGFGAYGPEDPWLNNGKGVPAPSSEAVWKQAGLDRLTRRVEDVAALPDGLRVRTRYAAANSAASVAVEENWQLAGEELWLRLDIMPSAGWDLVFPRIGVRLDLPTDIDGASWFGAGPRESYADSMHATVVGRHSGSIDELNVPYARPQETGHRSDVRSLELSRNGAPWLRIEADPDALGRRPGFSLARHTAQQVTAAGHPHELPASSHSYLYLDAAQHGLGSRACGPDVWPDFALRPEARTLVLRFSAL
T1 sequence (D9IU57 entry or part of it P2A/G388S/G665D): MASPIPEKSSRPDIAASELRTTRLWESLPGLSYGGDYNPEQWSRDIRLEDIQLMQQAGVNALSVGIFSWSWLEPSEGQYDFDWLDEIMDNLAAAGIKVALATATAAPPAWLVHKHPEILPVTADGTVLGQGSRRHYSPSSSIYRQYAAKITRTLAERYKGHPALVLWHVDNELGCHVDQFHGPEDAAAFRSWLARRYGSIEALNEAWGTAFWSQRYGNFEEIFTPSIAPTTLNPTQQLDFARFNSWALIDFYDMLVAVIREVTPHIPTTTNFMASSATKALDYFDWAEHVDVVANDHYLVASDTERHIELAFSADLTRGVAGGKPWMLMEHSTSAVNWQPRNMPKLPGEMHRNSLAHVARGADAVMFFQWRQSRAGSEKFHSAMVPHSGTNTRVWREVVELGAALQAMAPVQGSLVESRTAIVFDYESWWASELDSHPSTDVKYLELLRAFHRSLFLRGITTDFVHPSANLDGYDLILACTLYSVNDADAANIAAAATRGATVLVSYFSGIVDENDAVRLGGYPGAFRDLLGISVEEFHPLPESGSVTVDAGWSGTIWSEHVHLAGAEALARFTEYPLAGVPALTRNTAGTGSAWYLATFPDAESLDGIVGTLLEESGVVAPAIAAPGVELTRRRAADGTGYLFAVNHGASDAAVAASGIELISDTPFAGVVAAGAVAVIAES

With `OC[C@H]1OC(O)[C@H](O)[C@@H](O)[C@H]1O` (stereo partly drawn) [D-galactose], in assay [1] (competitive), the Ki worked out at 2.99 mM. As for `OC[C@H]1OC(O)[C@H](O)[C@@H](O)[C@@H]1O` (stereo partly drawn) [D-glucose], the Ki in assay [1] (uncompetitive) was 6.01 mM. Consider `O=[N+]([O-])c1ccccc1O[C@@H]1O[C@H](CO)[C@H](O)[C@H](O)[C@H]1O` [ONPG], for which, in assay [2], the Km came to 0.32 ± 0.07 mM. For the molecule `OC[C@H]1O[C@@H](O[C@H]2[C@H](O)[C@@H](O)C(O)O[C@@H]2CO)[C@H](O)[C@@H](O)[C@H]1O` (stereo partly shown) [lactose], the Km in assay [3] came out at 16.7 ± 0.81 mM.

For the origin of these results see PMC11677235, “Heterologous Production, Purification and Characterization of Two Cold-Active β-D-Galactosidases with Transglycosylation Activity from the Psychrotolerant Arctic Bacterium Arthrobacter sp. S3* Isolated from Spitsbergen Island Soil” (International Journal of Molecular Sciences, 2024).
